{"source": "patent US10278959B2", "about": "“Ready to use ketorolac formulations” (RTU Pharmaceuticals, LLC, priority 2010, dated 2019)", "type_in_all_cases": "physicochemical", "key": {"[1]": {"assay": "Acid-catalyzed degradation, HPLC purity", "protocol": "(§1) Degradation products for ketorolac tromethamine were generated under acidic and basic conditions for reference when evaluating HPLC chromatograms for purity. This ensures differentiation between degradants, impurities, and peaks which are both impurities and degradants. For the acid-catalyzed degradation, 4.92 mg of ketorolac tromethamine was added to a scintillation vial, followed by 10 mL of H2O, and the pH of the resulting colorless solution was adjusted to pH 1.60 with H3PO4. Aliquots of this solution were placed in capped amber HPLC vials in an 85° C. oven for the indicated amount of time, then analyzed by HPLC using the purity method outlined in Table 3. For the base catalyzed degradation, 4.92 mg of ketorolac tromethamine was added to a scintillation vial, followed by 10 mL of H2O, and the resulting colorless solution was adjusted to pH 12.09 with NaOH. Aliquots of this solution were placed in capped amber HPLC vials in an 85° C. oven for the indicated amount of time, then analyzed by HPLC using the purity method outlined in Table 3."}, "[2]": {"assay": "Stability Study B in Baxter IntraVia bags, HPLC purity", "settings": "heat for extended periods of time", "protocol": "Once all materials were added to the volumetric flask, it was filled to the line with H2O. The flask was magnetically stirred if any undissolved material was present. The formulations were then purged with N2 for 5 minutes before the bag filling process began. The Baxter IntraVia bags were filled by mass (80 g±1 g) using a peristaltic pump to feed the solution into each bag. A 2-way valve were placed in the solution filling line for sterile filtration and to regulate flow, respectively. For each formulation, 24 bags were filled.\nAll bags were used in the stability study without exposure to autoclave (or simulated autoclave) conditions. All bags were pulled within 1 day time points of 0, 4, 7, 14, 28 and 42 days and allowed to equilibrate to room temperature before sampling. Sampling of the bags for HPLC analysis occurred using a 5 cc disposable syringe with 21 gauge needle through the drug injection port. Approximately 1.5 mL of each formulation was transferred to an amber HPLC vial and analyzed within 12 hours of sampling.\nThis study included 3 formulations at 3 different temperatures (40° C., 60° C., and 80° C.) with time points over 6 weeks. Stability Study A provided information to structure Stability Study B with respect to the ideal parameters. […] Table 8 details the measured purity by HPLC of formulations 7, 8, and 10."}, "[3]": {"assay": "Light Stability Study (ambient light), HPLC purity", "protocol": "The clear scintillation vial was capped and placed on the windowsill, exposing the solution to both ambient light and temperature conditions. Aliquots (500 μL) were removed at various time points and diluted with an equal volume of H2O in an amber HPLC vial. The diluted solution was then analyzed by HPLC for the purity of ketorolac tromethamine."}, "[4]": {"assay": "Base-catalyzed degradation, HPLC purity", "protocol": "as §1"}}}
{"smiles": "O=C(c1ccccc1)c1ccc2n1CCC2C(=O)O", "note": "(centres unmarked) [Ketorolac tromethamine]", "values": [{"measurement": "HPLC Purity", "setting": "[1]; pH 1.60, 85° C., 2.5 hours", "result": 98.96, "unit": "%"}, {"measurement": "HPLC Purity", "setting": "[1]; pH 1.60, 85° C., 4 hours", "result": 98.92, "unit": "%"}, {"measurement": "HPLC Purity", "setting": "[1]; pH 1.60, 85° C., 24 hours", "result": 98.87, "unit": "%"}, {"measurement": "HPLC Purity", "setting": "[1]; pH 1.60, 85° C., 40 hours", "result": 98.08, "unit": "%"}, {"measurement": "HPLC Purity", "setting": "[1]; pH 1.60 with H3PO4, 85° C., 1.5 hours", "result": 99.02, "unit": "%"}, {"measurement": "stability upon exposure to heat", "setting": "[2]", "result": "stable"}, {"measurement": "Purity", "setting": "[3]; ambient light and temperature, clear vial, in H2O, 0 days", "result": 99.62, "unit": "%"}, {"measurement": "Purity", "setting": "[3]; ambient light, 1 day", "result": 99.62, "unit": "%"}, {"measurement": "Purity", "setting": "[3]; ambient light, 3 days", "result": 99.60, "unit": "%"}, {"measurement": "Purity", "setting": "[3]; ambient light, 5 days", "result": 99.61, "unit": "%"}, {"measurement": "Purity", "setting": "[3]; ambient light, 12 days", "result": 99.60, "unit": "%"}, {"measurement": "Purity", "setting": "[3]; ambient light, 41 days", "result": 97.03, "unit": "%"}, {"measurement": "Purity", "setting": "[3]; ambient light, 48 days", "result": 96.24, "unit": "%"}, {"measurement": "Purity", "setting": "[3]; ambient light, 62 days", "result": 93.27, "unit": "%"}, {"measurement": "Purity", "setting": "[3]; ambient light, 76 days", "result": 90.50, "unit": "%"}, {"measurement": "HPLC Purity", "setting": "[4]; pH 12.09, 85° C., 2.5 hours", "result": 99.66, "unit": "%"}, {"measurement": "HPLC Purity", "setting": "[4]; pH 12.09, 85° C., 4 hours", "result": 99.62, "unit": "%"}, {"measurement": "HPLC Purity", "setting": "[4]; pH 12.09, 85° C., 24 hours", "result": 99.28, "unit": "%"}, {"measurement": "HPLC Purity", "setting": "[4]; pH 12.09, 85° C., 40 hours", "result": 98.97, "unit": "%"}, {"measurement": "HPLC Purity", "setting": "[4]; pH 12.09 with NaOH, 85° C., 1.5 hours", "result": 99.67, "unit": "%"}]}
